According to patent US20130296434A1, “FORMULATIONS AND METHODS FOR TREATING AMYLOIDOSIS” (Kiacta Sarl, priority 2005, published 2013):

Assays:
[1] = Pharmacokinetic profile of a single oral dose of 800 mg PDS in subjects with varying degrees of renal impairment vs healthy volunteers; type: in vivo; details: human, plasma, single oral 800 mg; for AUC(0-inf): mean, only subjects with estimable elimination rate constant; for AUC(0-t): read-out: AUC0-Tlast
Description: An open-label, non-randomized, parallel group study to assess the pharmacokinetic profile of a single oral dose of 800 mg 1,3-propanedisulfonic acid disodium salt (PDS) in subjects with varying degrees of renal impairment as compared to healthy volunteers is conducted. Blood and urine samples are collected for 24 hours following dosing. Plasma and urine concentrations in 1,3-propanedisulfonic acid are determined using validated HPLC methods. […] Consequently, a decrease in dose appears to be necessary to maintain an acceptable systemic exposure in patients with impaired renal function.

[2] = Pharmacokinetics of single and repeated oral doses of PDS in healthy male subjects; type: in vivo, human; details: for AUC(0-t) / Cmax / Tmax: male, po, n = 6; for AUC(0-t) / Cmax: mean; for Tmax: median
Text: (§1) In the following examples, terms are as defined below. The pharmacokinetic parameters were derived by non-compartmental analysis using WinNonlin® (Pharsight Corp., Mountain View, Calif., USA). • Cmax—the maximum observed plasma concentration. • Tmax—the time of occurrence of Cmax. • AUC0-t—the area under the plasma concentration versus time curve from time zero to the last sampling time at which concentrations were at or above the limit of quantification, calculated by the linear trapezoidal rule. • AUC∞—the area under the plasma concentrations versus time curve from time zero to infinity, calculated from AUC0-t+(Clast/λz), where Clast is the last observed quantifiable concentration and λz is the apparent terminal rate constant. • t1/2 the apparent terminal half-life, calculated from ln 2/λz
The safety, tolerability and pharmacokinetics of PDS following multiple rising oral doses in healthy male adult volunteers is determined. This is a randomized, double-blind, placebo-controlled study to assess the pharmacokinetic profile of single and repeated oral doses of PDS at 400, 800 and 1600 mg in healthy male subjects. PDS is administered as a single oral dose to healthy male subjects at 400, 800 and 1600 mg on Days 1 and 7. Following the single oral administration on Day 1, PDS is administered on Days 2, 3, 4, 5 and 6 at 400, 800 and 1600 mg four times daily, or 1600 mg three times daily. Blood samples are collected through 24 hours after the dose on Day 1, before the first and last doses on Days 2 through 6, and after 48 hours after the final dose on Day 7. Plasma concentrations of PDS are determined using validated HPLC methods. Following single and repeated oral doses of PDS maximum plasma concentrations are generally reached within 0.25 to 1 hour post-dose. The mean half-life (T1/2) ranges from 5 to 20 hours after single or multiple dosing. Accumulation after multiple dosing is consistent with the T1/2 and dosing frequency.

[3] = Pharmacokinetics of PDS after single and multiple oral administration in AA amyloidosis patients; type: in vivo; details: human, plasma; for AUC(0-t) / Cmax / half-life: po; for half-life: multiple dose oral administration
Text: as §1
The safety, efficacy and pharmacokinetics of PDS after single and multiple oral administration in subjects with AA amyloidosis is determined. This is a multicenter, multinational, randomized, double-blind, placebo-controlled, and parallel-design study to assess the pharmacokinetic profile of single and repeated doses of PDS. Dosing depends on the severity or renal impairment in a subject: subjects having creatinine clearance (ClCr)>80 mL/min receive 1200 mg BID; for ClCr between 30 and 80 mL/min, the subject receives 800 mg BID; and for ClCr between 20 and 30 mL/min, the subject receives 400 mg BID. If ClCr decreases to the next lower range level, the dose regimen is adjusted accordingly. PDS is administered as a single oral dose for a subset of AA amyloidosis patients on Month 0 and 24 visits. Following the single administration on Month 0, PDS is administered twice daily for 24 months. Blood samples are collected through 24 hours after the doses on Month 0 and 24, and through 8 hours after the doses on Month 4, 8, 12 visits. Plasma concentrations of PDS are determined using validated HPLC methods. Following multiple dose oral administration of PDS, the range of accumulation across subjects is 1.75 to 3.44. Based on the accumulation factor, the mean T1/2 calculated is 15 hours with a range of 10 to 24 hours.

[4] = Healthy, GFR >80 mL/min, n = 6, mean
[5] = Mild renal impairment, GFR 50-80 mL/min, n = 6, mean
[6] = Moderate renal impairment, GFR 30-50 mL/min, n = 4, mean
[7] = Severe renal impairment, GFR <30 mL/min, n = 6, mean
[8] = human, plasma, 400 mg, 400 mg q.i.d. group, Day 1 (single oral administration)
[9] = human, plasma, 400 mg, 400 mg q.i.d., Day 7 (repeated oral administration)
[10] = human, plasma, 800 mg, 800 mg q.i.d. group, Day 1 (single oral administration)
[11] = human, plasma, 800 mg, 800 mg q.i.d., Day 7 (repeated oral administration)
[12] = human, plasma, 1600 mg, 1600 mg q.i.d group, Day 1 (single oral administration)
[13] = human, plasma, 1600 mg, 1600 mg q.i.d, Day 7 (repeated oral administration)
[14] = human, plasma, 1600 mg, 1600 mg t.i.d. group, Day 1 (single oral administration)
[15] = human, plasma, 1600 mg, 1600 mg t.i.d., Day 7 (repeated oral administration)

Compound: O=S(=O)([O-])CCCS(=O)(=O)[O-].[Na+].[Na+] [PDS, 1,3-propanedisulfonic acid, disodium salt]
- AUC(0-inf) ([1]; Healthy, GFR >80 mL/min): 5370 ng·h/mL
- Cmax [1, 4]: 1240 ng/mL
- AUC(0-t) [1, 4]: 3160 ng·h/mL
- Tmax ([1]; Healthy, GFR >80 mL/min, n = 6, median): 30 min
- AUC(0-inf) ([1]; Mild renal impairment, GFR 50-80 mL/min): 13000 ng·h/mL
- Cmax [1, 5]: 3060 ng/mL
- AUC(0-t) [1, 5]: 9110 ng·h/mL
- Tmax ([1]; Mild renal impairment, GFR 50-80 mL/min, n = 6, median): 30 min
- AUC(0-inf) ([1]; Moderate renal impairment, GFR 30-50 mL/min): 10700 ng·h/mL
- Cmax [1, 6]: 2100 ng/mL
- AUC(0-t) [1, 6]: 9450 ng·h/mL
- Tmax ([1]; Moderate renal impairment, GFR 30-50 mL/min, n = 4, median): 30 min
- AUC(0-inf) ([1]; Severe renal impairment, GFR <30 mL/min): 43100 ng·h/mL
- Cmax [1, 7]: 2210 ng/mL
- AUC(0-t) [1, 7]: 29200 ng·h/mL
- Tmax ([1]; Severe renal impairment, GFR <30 mL/min, n = 6, median): 150 min
- half-life ([2]; human, plasma, oral, after single or multiple dosing, 400, 800, 1600 mg, healthy male subjects, range of means, read-out: mean half-life (T1/2)): 300 to 1200 min
- AUC(0-t) [2, 8]: 1590 ng·h/mL
- Cmax [2, 8]: 496 ng/mL
- Tmax [2, 8]: 60 min
- AUC(0-t) [2, 9]: 10500 ng·h/mL
- Cmax [2, 9]: 995 ng/mL
- Tmax [2, 9]: 15 min
- AUC(0-t) [2, 10]: 5180 ng·h/mL
- Cmax [2, 10]: 2680 ng/mL
- Tmax [2, 10]: 15 min
- AUC(0-t) [2, 11]: 19900 ng·h/mL
- Cmax [2, 11]: 1680 ng/mL
- Tmax [2, 11]: 15 min
- AUC(0-t) [2, 12]: 8300 ng·h/mL
- Cmax [2, 12]: 2800 ng/mL
- Tmax [2, 12]: 30 min
- AUC(0-t) [2, 13]: 24500 ng·h/mL
- Cmax [2, 13]: 5480 ng/mL
- Tmax [2, 13]: 15 min
- AUC(0-t) [2, 14]: 7090 ng·h/mL
- Cmax [2, 14]: 2890 ng/mL
- Tmax [2, 14]: 22.5 min
- AUC(0-t) [2, 15]: 25800 ng·h/mL
- Cmax [2, 15]: 4890 ng/mL
- Tmax [2, 15]: 30 min
- dose dependence of systemic exposure (AUC0-t and Cmax) ([2]; single and repeated oral doses 400, 800, 1600 mg, healthy male subjects): approximately proportional to the administered dose
- Tmax ([3]; Dose 400 (mg BID), Month 0 single oral dose, n = 2, mean): 180 min
- Tmax ([3]; Dose 400 (mg BID), Month 24 repeated oral doses, n = 3, mean): 110 min
- Tmax ([3]; Dose 800 (mg BID), Month 0 single oral dose, n = 5, mean): 177 min
- Tmax ([3]; Dose 800 (mg BID), Month 24 repeated oral doses, n = 4, mean): 111 min
- Tmax ([3]; Dose 1200 (mg BID), Month 0 single oral dose, n = 4, mean): 41.4 min
- Tmax ([3]; Dose 1200 (mg BID), Month 24 repeated oral doses, n = 1): 40.8 min
- AUC(0-t) ([3]; 400 mg BID, Month 24 repeated oral doses, n = 3, mean, read-out: AUC(0-12)): 17600 ng·h/mL
- AUC(0-t) ([3]; 400 mg BID, Month 24 repeated oral doses, n = 3, mean, read-out: AUC(0-tlast)): 25700 ng·h/mL
- AUC(0-t) ([3]; 400 mg, Dose 400 (mg BID), Month 0 single oral dose, n = 2, mean, read-out: AUC(0-12)): 7410 ng·h/mL
- AUC(0-t) ([3]; 400 mg, Dose 400 (mg BID), Month 0 single oral dose, n = 2, mean, read-out: AUC(0-tlast)): 11700 ng·h/mL
- Cmax ([3]; 400 mg, Dose 400 (mg BID), Month 24 repeated oral doses, n = 3, mean): 2160 ng/mL
- Cmax ([3]; 400 mg, Dose 400 (mg BID, ClCr 20-30 mL/min), Month 0 single oral dose, n = 2, mean): 841 ng/mL
- Cmax ([3]; 800 mg BID, Month 24 repeated oral doses, n = 4, mean): 1900 ng/mL
- AUC(0-t) ([3]; 800 mg BID, Month 24 repeated oral doses, n = 4, mean, read-out: AUC(0-12)): 13700 ng·h/mL
- AUC(0-t) ([3]; 800 mg BID, Month 24 repeated oral doses, n = 4, mean, read-out: AUC(0-tlast)): 21200 ng·h/mL
- AUC(0-t) ([3]; 800 mg, Dose 800 (mg BID), Month 0 single oral dose, n = 5, mean, read-out: AUC(0-12)): 5950 ng·h/mL
- AUC(0-t) ([3]; 800 mg, Dose 800 (mg BID), Month 0 single oral dose, n = 5, mean, read-out: AUC(0-tlast)): 9810 ng·h/mL
- Cmax ([3]; 800 mg, Dose 800 (mg BID, ClCr 30-80 mL/min), Month 0 single oral dose, n = 5, mean): 812 ng/mL
- Cmax ([3]; 1200 mg BID, Month 24 repeated oral doses, n = 1): 637 ng/mL
- AUC(0-t) ([3]; 1200 mg BID, Month 24 repeated oral doses, n = 1, read-out: AUC(0-12)): 4930 ng·h/mL
- AUC(0-t) ([3]; 1200 mg BID, Month 24 repeated oral doses, n = 1, read-out: AUC(0-tlast)): 9140 ng·h/mL
- AUC(0-t) ([3]; 1200 mg, Dose 1200 (mg BID), Month 0 single oral dose, n = 4, mean, read-out: AUC(0-12)): 4210 ng·h/mL
- AUC(0-t) ([3]; 1200 mg, Dose 1200 (mg BID), Month 0 single oral dose, n = 4, mean, read-out: AUC(0-tlast)): 5630 ng·h/mL
- Cmax ([3]; 1200 mg, Dose 1200 (mg BID, ClCr >80 mL/min), Month 0 single oral dose, n = 4, mean): 867 ng/mL
- half-life ([3]; read-out: mean T1/2 calculated based on the accumulation factor (converted)): 900 min
- half-life ([3]; read-out: range of T1/2 calculated based on the accumulation factor): 600 to 1440 min
